Measurements published in publication PMC5589637, “New perspectives of cobalt tris(bipyridine) system: anti-cancer effect and its collateral sensitivity towards multidrug-resistant (MDR) cancers” (Oncotarget, 2017).

How the values were obtained:
P-gp ATPase = P-gp ATPase (Homo sapiens, UniProt P08183); settings: 0–2 μM, verapamil (200 μM) stimulated, ATP, 1 h at 37°C
Experimental: The luminescence of the sample reflects the ATP level in the sample, which is negatively correlated with the activity of P-gp ATPase and was recorded using the SpectraMax Paradigm Multi-Mode Microplate Reader (Molecular Devices). DMSO-treated activities are expressed as the percentage of basal activity.

[1] = tested on: HCT-8 taxol-resistant cancer cells; test: MTT cytotoxicity, taxol-resistant HCT-8; assay type: cell-based
Excerpt: (§1) All cells were obtained from the American Type Culture Collection (Rockville, MD, USA) unless otherwise specified. Immortalized wild-type and Atg7-deficient mouse embryonic fibroblasts (MEFs) were kindly provided by Professor Masaaki Komatsu (Juntendo University, School of Medicine, Japan). Taxol-resistant types of MCF-7, HCT-8, A549 cancers cells and cisplatin-resistant SGC7901 cancer cells were purchased from KeyGEN BioTECH, China. Cisplatin-sensitive or –resistant A2780, OV2008 and C13 cancer cells were kindly provided by Prof. Benjamin Tsang (Department of Obstetrics and Gynecology and Department of Cellular and Molecular Medicine, University of Ottawa, Canada). HCT116 p53^+/+ and p53^−/− isogenic human colon cancer cells were kindly provided by Professor Bert Vogelstein (Ludwig Center at Johns Hopkins, Howard Hughes Medical Institute, USA). All media were supplemented with 10% fetal bovine serum and antibiotics penicillin (50 U/ml) and streptomycin (50 μg/ml; Invitrogen, Paisley, Scotland, UK). All cell cultures were incubated at 37°C in a 5% humidified CO2 incubator.
(§2) All tested compounds were dissolved in DMSO at a final concentration of 50 mmol/L and stored at −20°C before use. Cytotoxicity was assessed by using the 3-(4,5-dimethylthiazol-2-yl)-2, 5-diphenyltetrazolium bromide (MTT) (5.0 mg/ml) assay as previously described. Briefly, 4×10^3 cells per well were seeded in 96-well plates before drug treatments. After overnight culture, the cells were then exposed to different concentrations of selected compounds ([…]) for 72 hours. Cells without drug treatment were used as control. Subsequently, MTT (10 μL) solution was added to each well and incubated at 37°C for 4 hours followed by the addition of 100 μL solubilization buffer (10%SDS in 0.01 mol/L HCl) and overnight incubation. A570 nm was then determined in each well on the next day. The percentage of cell viability was calculated using the following formula: Cell viability (%) = Atreated/Acontrol × 100. Data were obtained from three independent experiments.

[2] = tested on: HeLa (cervical cancer) cells; test: MTT cytotoxicity assay, HeLa; assay type: cell-based; settings: 72 h
Experimental: as §2

[3] = tested on: HepG2 (liver cancer) cells; test: MTT cytotoxicity assay, HepG2; assay type: cell-based; settings: 72 h
Experimental: as §2

[4] = tested on: C13 (cisplatin-resistant) cells; test: MTT cytotoxicity, C13 (cisplatin-resistant); assay type: cell-based
Excerpt: as §1, §2

HeLa cancer cells = test: Endogenous autophagy detection (LC3-II puncta immunofluorescence); assay type: cell-based; settings: 24 h
Experimental: The detection of endogenous LC3 was conducted using immunofluorescence staining method as described below. In brief, cobalt complex 2-treated HeLa cancer cells on cover slips were fixed with 4% paraformaldehyde (Sigma) for 20 min at room temperature and then rinsed with PBS. Coverslips were immersed in methanol at room temperature for 2 min. After washing with PBS, the cells were then incubated with anti-LC3 (1:200) in TBST (100 mM Tris HCl, pH 7.5, 150 mM NaCl, 0.05% Tween 20 and 5% BSA) overnight at 4 °C. After washing with PBS, the cells were incubated with anti-mouse secondary antibody (TRITC) (1:200) in TBST containing 5% BSA at 37°C for 1 hour in the dark. The coverslips were then mounted with FluorSave™ mounting media (Calbiochem, San Diego, CA, USA) for fluorescence imaging and localization of LC3 autophagosomes were captured under the API Delta Vision Live-cell Imaging System (Applied Precision Inc.,GE Healthcare Company, Washington, USA). To quantify autophagy, guidelines were followed. The percentage of cells with autophagic induction was calculated by the number of the cells with increased formation of punctate LC3 fluorescence dots (≥ 10 dots/cell) over the total number of immunofluorescence-positive cells in the same field. A minimum of 1000 cells from randomly selected fields were scored.

[5] = tested on: H1975 (EGFR mutant lung cancer) cells; test: MTT cytotoxicity assay, H1975; assay type: cell-based; settings: 72 h
Experimental: as §2

[6] = tested on: MCF-7 taxol-resistant cancer cells; test: MTT cytotoxicity, taxol-resistant MCF-7; assay type: cell-based
Excerpt: as §1, §2

[7] = tested on: MCF-7 taxol-sensitive cancer cells; test: MTT cytotoxicity, taxol-sensitive MCF-7; assay type: cell-based; settings: 72 h
Excerpt: as §1, §2

H1299 cell = test: Western blot of cell invasion markers MMP-9 and ICAM-1; assay type: cell-based, human; settings: 0.5 μM
Experimental: Western blot analysis was carried out following standard methods. Cells were lysed with RIPA lysis buffer with protease and phosphatase inhibitor cocktails. Protein concentrations were determined using the Bio-Rad protein assay (Bio-Rad Laboratories, Inc., Hercules, CA, USA). After electrophoresis, the proteins from SDS/PAGE were electro-transferred to a Hybond enhanced chemiluminescence nitrocellulose membrane (Amersham Biosciences, NJ, USA), which was then blocked with 5% dried milk for 1 hour. After washing, the blot was incubated with the indicated primary antibodies overnight at 4°C. Detection was performed using appropriated HRP-conjugated secondary antibodies for 1 hour at RT followed by chemiluminescence (Invitrogen).

[8] = tested on: H1299 (lung cancer) cells; test: MTT cytotoxicity assay, H1299; assay type: cell-based, human; settings: 72 h
Experimental: as §2

[9] = tested on: Hep3B (liver cancer) cells; test: MTT cytotoxicity assay, Hep 3B; assay type: cell-based; settings: 72 h
Experimental: as §2

[10] = tested on: A549 (EGFR wild-type lung cancer) cells; test: MTT cytotoxicity assay, A549; assay type: cell-based; settings: 72 h
Experimental: as §2

Chain of P-gp ATPase (P08183 whole entry): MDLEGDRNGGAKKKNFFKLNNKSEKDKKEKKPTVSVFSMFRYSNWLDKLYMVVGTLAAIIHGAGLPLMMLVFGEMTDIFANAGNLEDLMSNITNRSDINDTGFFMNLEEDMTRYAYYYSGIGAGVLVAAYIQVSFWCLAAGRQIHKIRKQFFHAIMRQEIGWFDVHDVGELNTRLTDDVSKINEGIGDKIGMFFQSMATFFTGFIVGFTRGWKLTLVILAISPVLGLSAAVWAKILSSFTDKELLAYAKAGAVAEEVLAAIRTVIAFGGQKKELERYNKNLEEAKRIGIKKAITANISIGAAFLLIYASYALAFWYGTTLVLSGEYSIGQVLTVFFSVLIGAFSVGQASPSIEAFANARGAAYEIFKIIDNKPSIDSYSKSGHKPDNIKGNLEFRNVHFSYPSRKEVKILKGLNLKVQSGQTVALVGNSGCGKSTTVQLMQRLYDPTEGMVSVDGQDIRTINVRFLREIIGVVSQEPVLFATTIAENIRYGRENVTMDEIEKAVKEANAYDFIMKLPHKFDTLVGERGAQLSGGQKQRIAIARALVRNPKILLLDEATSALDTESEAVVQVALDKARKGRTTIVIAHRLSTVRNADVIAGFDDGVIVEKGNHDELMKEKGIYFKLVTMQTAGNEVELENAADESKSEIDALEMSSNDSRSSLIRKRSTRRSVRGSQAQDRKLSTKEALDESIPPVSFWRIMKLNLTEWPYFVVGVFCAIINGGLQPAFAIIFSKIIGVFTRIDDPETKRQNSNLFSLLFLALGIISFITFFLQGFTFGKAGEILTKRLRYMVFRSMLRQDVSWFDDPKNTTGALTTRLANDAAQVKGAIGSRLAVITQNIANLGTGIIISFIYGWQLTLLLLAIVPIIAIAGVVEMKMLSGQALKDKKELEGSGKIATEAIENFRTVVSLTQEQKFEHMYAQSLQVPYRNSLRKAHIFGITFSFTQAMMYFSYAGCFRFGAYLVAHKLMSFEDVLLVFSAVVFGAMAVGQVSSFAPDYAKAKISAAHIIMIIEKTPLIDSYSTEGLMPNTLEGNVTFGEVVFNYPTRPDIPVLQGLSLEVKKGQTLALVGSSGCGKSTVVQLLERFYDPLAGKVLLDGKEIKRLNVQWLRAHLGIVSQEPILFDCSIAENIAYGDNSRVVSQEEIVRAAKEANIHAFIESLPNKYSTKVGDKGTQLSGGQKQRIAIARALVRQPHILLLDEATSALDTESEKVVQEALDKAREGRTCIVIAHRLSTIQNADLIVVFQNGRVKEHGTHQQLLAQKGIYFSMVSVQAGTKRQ

Cc1ccnc(-c2cc(C)ccn2)c1.Cc1ccnc(-c2cc(C)ccn2)c1.Cc1ccnc(-c2cc(C)ccn2)c1.F[P-](F)(F)(F)(F)F.F[P-](F)(F)(F)(F)F.F[P-](F)(F)(F)(F)F.[Co+3] [complex 2, [Co^III(4,4’-Me2-bpy)3](PF6)3]
P-gp ATPase activity (change in luminescence) (P-gp ATPase): dose-dependently inhibited the ATPase activity of P-gp
IC50 ([1]; HCT-8 taxol-resistant, MTT, 72 h): 1.22 µM
Resistant Factor, HCT-8 ([1]; IC50 of taxol-resistant cells over IC50 of taxol-sensitive cells, HCT-8): 0.36
IC50 [2]: 11.9 µM
IC50 [3]: 5.44 µM
IC50 ([4]; C13 (cisplatin-resistant), MTT, 72 h, read-out: IC50 value, cisplatin-resistant cancer, C13): 7.59 µM
Resistant Factor, OV2008/C13 pair ([4]; C13 (resistant) IC50 over OV2008 (sensitive) IC50): 1.0
autophagy induction (percentage of cells with endogenous LC3-II puncta formation) (HeLa cancer cells): induce autophagy in dose-dependent manner
IC50 [5]: 8.84 µM
Resistant Factor, MCF-7 ([6]; IC50 of taxol-resistant cells over IC50 of taxol-sensitive cells, MCF-7): 0.68
IC50 ([6]; MCF-7 taxol-resistant, MTT, 72 h): 2.71 µM
IC50 [7]: 4 µM
expression of MMP-9 and ICAM-1 (H1299 cell): significantly downregulated
IC50 [8]: 2.84 µM
IC50 [9]: 3.7 µM
IC50 [10]: 7.86 µM
